According to patent publication US7592457B2 (Korea Research Institute of Chemical Technology, priority 2004, dated 2009):

What was measured:
[1] = target: T1, 5-HT1a (Homo sapiens, UniProt P08908); test: Radioligand binding, 5-HT1a ([3H]8-OH-DPAT); conditions: read-out: Binding affinity (Inhibition rate % at 10 μM) 5HT1a
T1 construct: purchased Euroscreen/BioSignal Packard Inc
T1 sequence (P08908 1-422): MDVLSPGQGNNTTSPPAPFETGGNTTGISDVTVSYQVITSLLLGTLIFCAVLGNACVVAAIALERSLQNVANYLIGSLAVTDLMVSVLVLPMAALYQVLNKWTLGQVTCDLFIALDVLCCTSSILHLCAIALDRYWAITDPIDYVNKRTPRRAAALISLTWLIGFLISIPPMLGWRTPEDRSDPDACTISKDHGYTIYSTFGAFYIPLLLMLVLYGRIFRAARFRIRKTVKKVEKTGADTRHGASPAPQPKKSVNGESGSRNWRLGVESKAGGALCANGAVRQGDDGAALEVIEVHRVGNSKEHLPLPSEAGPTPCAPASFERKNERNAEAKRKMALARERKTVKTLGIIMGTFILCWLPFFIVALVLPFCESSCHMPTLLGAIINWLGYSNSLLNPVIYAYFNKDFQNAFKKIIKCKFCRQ
Description: (§1) Radioligand bindings were performed according to the test method provided by the supplier of receptor membrane (Euroscreen/BioSignal Packard Inc.).

[2] = target: D1 (Homo sapiens, UniProt P21728); test: Radioligand binding for selectivity, D1; conditions: read-out: Binding affinity (Inhibition rate % at 10 μM) D1
[3] = target: T2, hD3 receptor (Homo sapiens, UniProt P35462); test: Radioligand binding, dopamine D3 ([3H]spiperone); conditions: read-out: Binding affinity (Inhibition rate % at 10 μM) D3
T2 construct: purchased BioSignal Packard Inc., Montreal, Canada
Description: (§2) The radioligands used were [^3H] spiperone (for hD2L and hD3 receptors, 1 nM) and [^3H] YM-09151-2 (for hD4.2 receptor, 0.06 nM). Radioligand bindings were performed by the protocols provided by the supplier of receptor membranes (BioSignal Packard Inc., Montreal, Canada). Briefly, the buffer used in D2 or D3 receptor binding assay was 50 mM Tris-HCl (pH 7.4), 10 mM MgCl2, 1 mM EDTA, or 50 mM Tris-HCl (pH 7.4), 5 mM MgCl2, 5 mM EDTA, 5 mM KCl, 1.5 mM CaCl2, 120 mM NaCl, respectively. In [^3H] YM-09151-2 receptor binding assays, the buffer containing 50 mM Tris-HCl (pH 7.4), 5 mM MgCl2, 5 mM EDTA, 5 mM KCl and 1.5 mM CaCl2 was used. Nonspecific binding was determined with haloperidol (10 μM) or clozapine (10 μM) for D2 and D3, and D4 receptors, respectively. Competition binding studies were carried out with 7-8 concentrations of the test compound run in duplicate tubes, and isotherms from three assays were calculated by computerized nonlinear regression analysis (GraphPad Prism Program, San Diego, […]) to yield median inhibitory concentration (IC50) values.

[4] = target: T3, 5-HT2a (Homo sapiens, UniProt P28223); test: Radioligand binding, 5-HT2a ([3H]Ketanserin); conditions: read-out: Binding affinity (Inhibition rate % at 10 μM) 5HT2a
T3 construct: purchased Euroscreen/BioSignal Packard Inc
Description: as §1

[5] = target: T4, 5-HT2c (Homo sapiens, UniProt P28335); test: Radioligand binding, 5-HT2c ([3H]Mesulergine); conditions: read-out: Binding affinity (Inhibition rate % at 10 μM) 5HT2c
T4 construct: purchased Euroscreen/BioSignal Packard Inc
T4 sequence (P28335 33-458): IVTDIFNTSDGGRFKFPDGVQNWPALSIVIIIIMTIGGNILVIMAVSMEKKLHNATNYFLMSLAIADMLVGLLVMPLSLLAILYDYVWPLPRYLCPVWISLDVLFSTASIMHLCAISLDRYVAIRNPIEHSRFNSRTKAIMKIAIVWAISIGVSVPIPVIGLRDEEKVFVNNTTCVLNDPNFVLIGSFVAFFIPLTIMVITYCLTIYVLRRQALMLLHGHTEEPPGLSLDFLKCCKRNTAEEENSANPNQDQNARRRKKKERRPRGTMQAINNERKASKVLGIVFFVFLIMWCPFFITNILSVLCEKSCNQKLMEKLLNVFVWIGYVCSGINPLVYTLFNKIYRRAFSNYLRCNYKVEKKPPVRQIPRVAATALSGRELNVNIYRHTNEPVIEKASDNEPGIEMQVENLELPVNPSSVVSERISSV
Description: as §1

[6] = target: T5, human serotonin 5-HT6 receptor (Homo sapiens, UniProt P50406); test: [3H]LSD binding at cloned 5-HT6 receptors; conditions: for IC50: [3H]LSD 1.87 nM, cloned receptor membranes, 37° C., 60 min, read-out: IC50; for inhibition at 10 µM: read-out: Binding affinity (Inhibition rate % at 10 μM) 5HT6
T5 construct: made in house; host or cells: Sf21 insect cells (pBacPAK8 baculovirus vector)

[7] = target: T6, hD4.2 receptor (Homo sapiens, UniProt P21917, DEL265-296); test: Radioligand binding, dopamine D4 ([3H]YM-09151-2); conditions: read-out: Binding affinity (Inhibition rate % at 10 μM) D4
T6 construct: purchased BioSignal Packard Inc., Montreal, Canada
T6 sequence (P21917 with tags, fused parts or gaps DEL265-296): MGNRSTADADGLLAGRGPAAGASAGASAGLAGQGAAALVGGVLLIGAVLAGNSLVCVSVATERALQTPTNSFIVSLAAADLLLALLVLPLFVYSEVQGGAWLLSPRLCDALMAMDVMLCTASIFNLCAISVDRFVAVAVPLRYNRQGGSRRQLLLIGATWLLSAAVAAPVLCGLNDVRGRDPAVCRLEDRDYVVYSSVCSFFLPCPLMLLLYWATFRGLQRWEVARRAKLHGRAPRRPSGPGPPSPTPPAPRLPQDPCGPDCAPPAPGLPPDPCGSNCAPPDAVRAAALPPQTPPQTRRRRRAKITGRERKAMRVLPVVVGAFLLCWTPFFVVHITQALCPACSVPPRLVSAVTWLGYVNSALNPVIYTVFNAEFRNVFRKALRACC
Description: as §2

[8] = target: T7, 5-HT7 (Homo sapiens, UniProt P34969); test: Radioligand binding, 5-HT7 ([3H]LSD); conditions: read-out: Binding affinity (Inhibition rate % at 10 μM) 5HT7
T7 construct: purchased Euroscreen/BioSignal Packard Inc
Description: as §1

[9] = target: T8, hD2L receptor (Homo sapiens, UniProt P14416); test: Radioligand binding, dopamine D2 ([3H]spiperone); conditions: read-out: Binding affinity (Inhibition rate % at 10 μM) D2
T8 construct: purchased BioSignal Packard Inc., Montreal, Canada
Description: as §2

T7 sequence (P34969 whole entry): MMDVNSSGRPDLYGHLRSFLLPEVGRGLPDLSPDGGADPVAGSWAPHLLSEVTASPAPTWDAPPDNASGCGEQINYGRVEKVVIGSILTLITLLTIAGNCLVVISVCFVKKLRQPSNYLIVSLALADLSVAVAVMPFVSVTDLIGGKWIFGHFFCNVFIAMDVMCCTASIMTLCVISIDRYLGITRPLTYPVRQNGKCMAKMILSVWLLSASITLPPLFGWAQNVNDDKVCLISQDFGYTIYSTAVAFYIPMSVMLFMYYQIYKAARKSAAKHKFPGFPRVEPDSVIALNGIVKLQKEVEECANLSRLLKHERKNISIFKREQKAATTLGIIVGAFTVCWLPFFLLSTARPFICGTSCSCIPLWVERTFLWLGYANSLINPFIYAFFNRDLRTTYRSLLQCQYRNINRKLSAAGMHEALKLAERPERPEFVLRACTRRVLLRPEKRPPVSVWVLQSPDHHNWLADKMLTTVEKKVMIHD
Chain of D1 (P21728 whole entry): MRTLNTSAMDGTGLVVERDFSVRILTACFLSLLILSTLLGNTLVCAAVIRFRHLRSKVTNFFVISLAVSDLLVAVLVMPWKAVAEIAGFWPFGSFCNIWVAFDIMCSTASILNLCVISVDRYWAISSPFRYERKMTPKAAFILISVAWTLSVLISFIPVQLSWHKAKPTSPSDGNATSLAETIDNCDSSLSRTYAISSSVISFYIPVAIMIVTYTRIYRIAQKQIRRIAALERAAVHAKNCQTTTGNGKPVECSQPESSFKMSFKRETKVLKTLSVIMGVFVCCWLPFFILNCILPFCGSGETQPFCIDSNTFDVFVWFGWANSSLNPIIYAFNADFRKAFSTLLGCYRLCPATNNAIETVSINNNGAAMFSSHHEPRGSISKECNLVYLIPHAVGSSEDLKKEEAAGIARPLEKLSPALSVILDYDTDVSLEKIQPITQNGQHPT
T3 sequence (P28223 whole entry): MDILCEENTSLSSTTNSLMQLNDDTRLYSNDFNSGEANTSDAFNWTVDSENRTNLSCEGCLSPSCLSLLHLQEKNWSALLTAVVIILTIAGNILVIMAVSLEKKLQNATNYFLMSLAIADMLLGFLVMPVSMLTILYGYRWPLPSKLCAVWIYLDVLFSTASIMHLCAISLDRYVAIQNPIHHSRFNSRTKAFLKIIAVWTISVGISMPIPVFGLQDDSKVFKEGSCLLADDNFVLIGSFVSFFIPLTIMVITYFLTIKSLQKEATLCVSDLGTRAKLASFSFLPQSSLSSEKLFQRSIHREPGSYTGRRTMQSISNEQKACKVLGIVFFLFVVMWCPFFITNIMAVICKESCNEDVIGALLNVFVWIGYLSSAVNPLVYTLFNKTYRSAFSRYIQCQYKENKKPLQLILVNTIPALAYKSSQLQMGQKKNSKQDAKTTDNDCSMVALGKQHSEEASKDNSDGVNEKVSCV
T5 sequence (P50406 whole entry): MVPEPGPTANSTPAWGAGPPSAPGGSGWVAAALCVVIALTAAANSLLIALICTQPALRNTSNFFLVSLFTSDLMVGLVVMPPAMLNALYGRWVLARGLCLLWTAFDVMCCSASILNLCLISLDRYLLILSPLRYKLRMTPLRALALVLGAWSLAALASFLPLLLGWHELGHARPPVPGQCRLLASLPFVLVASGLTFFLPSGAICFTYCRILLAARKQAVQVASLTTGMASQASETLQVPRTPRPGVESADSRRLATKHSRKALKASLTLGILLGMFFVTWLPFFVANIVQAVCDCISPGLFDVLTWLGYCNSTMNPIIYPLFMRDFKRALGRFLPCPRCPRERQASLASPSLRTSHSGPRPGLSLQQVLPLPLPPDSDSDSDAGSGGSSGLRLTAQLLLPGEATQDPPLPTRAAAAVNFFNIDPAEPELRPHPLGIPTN
T8 sequence (P14416 whole entry): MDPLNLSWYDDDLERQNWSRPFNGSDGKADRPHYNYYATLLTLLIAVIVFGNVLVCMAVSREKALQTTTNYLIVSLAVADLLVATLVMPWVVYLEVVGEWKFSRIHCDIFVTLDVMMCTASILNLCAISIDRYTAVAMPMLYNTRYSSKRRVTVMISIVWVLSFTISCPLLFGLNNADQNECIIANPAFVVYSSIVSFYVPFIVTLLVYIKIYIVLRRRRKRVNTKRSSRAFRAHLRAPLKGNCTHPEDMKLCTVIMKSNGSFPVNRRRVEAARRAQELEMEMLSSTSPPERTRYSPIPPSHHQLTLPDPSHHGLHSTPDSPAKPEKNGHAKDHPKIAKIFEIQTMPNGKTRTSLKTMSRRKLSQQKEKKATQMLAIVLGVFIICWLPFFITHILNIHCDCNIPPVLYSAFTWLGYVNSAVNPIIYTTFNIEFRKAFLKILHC
T2 sequence (P35462 whole entry): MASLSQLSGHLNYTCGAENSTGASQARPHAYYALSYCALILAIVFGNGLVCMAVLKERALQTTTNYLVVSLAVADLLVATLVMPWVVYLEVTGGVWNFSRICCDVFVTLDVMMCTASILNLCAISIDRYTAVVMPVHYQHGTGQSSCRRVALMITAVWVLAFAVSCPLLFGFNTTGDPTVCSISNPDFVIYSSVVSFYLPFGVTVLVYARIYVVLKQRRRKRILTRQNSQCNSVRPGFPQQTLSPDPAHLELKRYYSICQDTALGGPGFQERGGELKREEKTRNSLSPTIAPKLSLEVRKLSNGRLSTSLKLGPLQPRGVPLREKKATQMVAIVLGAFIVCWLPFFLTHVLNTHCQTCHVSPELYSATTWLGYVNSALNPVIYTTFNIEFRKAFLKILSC

SMILES | inhibition at 10 µM [1] | inhibition at 10 µM [2] | inhibition at 10 µM [3] | inhibition at 10 µM [4] | inhibition at 10 µM [5] | IC50 [6] | inhibition at 10 µM [6] | inhibition at 10 µM [7] | inhibition at 10 µM [8] | inhibition at 10 µM [9]
C[C@H](NC(=O)Nc1cccc([C@]2(C)C(=O)Nc3cc(Cl)cc(Cl)c3C2=O)c1)c1ccccc1 [Example 44, 1-(S)-[3-(5,7-dichloro-3-methyl-2,4-dioxo-1,2,3,4-tetrahydro-quinoline-3-yl) -phenyl]-3-(1-(S) -phenyl-ethyl) -urea] | 25.4% | 35% | 16.2% | 58.5% | 21.5% | 0.791 µM | 73.8% | 0% | 32.2% | 11.5%
CC1(c2ccc(I)cc2)C(=O)Nc2cc(Cl)cc(Cl)c2C1=O (stereo not drawn) [Example 16, 5,7-dichloro-3-(4-iodo-phenyl)-3-methyl-1H-quinoline-2,4-dione] | 43.5% | 24.7% | 10% | 47.2% | 34.5% | 1.55 µM | 70.9% | 1.3% | 50.7% | 20.1%
CN1CCN(c2cc(Cl)c3c(c2)NC(=O)C(C)(c2ccc([N+](=O)[O-])cc2)C3=O)CC1 (stereo not drawn) [Example 49, 5-chloro-3-methyl-7-(4-methyl-piperazine-1-yl)-3-(4-nitro-phenyl)-1H-quinoline-2,4-dione] | 1.4% | 26% | 12.4% | 33.4% | 19.8% | 1.02 µM | 70.2% | 0% | 24.4% | 10.5%
CC1(c2ccc([N+](=O)[O-])cc2)C(=O)Nc2cc(Cl)c(Cl)cc2C1=O (stereo not drawn) [Example 36, 6,7-dichloro-3-methyl-3-(4-nitro-phenyl)-1H-quinoline-2,4-dione] | 42.1% | 12.6% | 11.9% | 13.2% | 8.2% | 0.645 µM | 71.9% | 0% | 16.5% | 16.5%
COc1ccc(C2(C)C(=O)Nc3c(Br)cc(Br)cc3C2=O)cc1[N+](=O)[O-] (stereo not drawn) [Example 28, 6,8-dibromo-3-(4-methoxy-3-nitro-phenyl)-3-methyl-1H-quinoline-2,4-dione] | 60.9% | 46.9% | 40.9% | 9% | 13.7% | 1.2 µM | 73.2% | 2.3% | 10.2% | 9.4%
CC1(c2ccc(Br)cc2Br)C(=O)Nc2cc(Cl)cc(Cl)c2C1=O (stereo not drawn) [Example 27, 3-(2,4-dibromo-phenyl)-5,7-dichloro-3-methyl-1H-quinoline-2,4-dione] | 46% | 25.8% | 15.6% | 30.8% | 28.1% | 0.349 µM | 71.1% | 1.6% | 12.3% | 10.2%
CC1(c2ccc([N+](=O)[O-])cc2)C(=O)Nc2cc(Cl)cc(Cl)c2C1=O (stereo not drawn) [Example 14, 5,7-dichloro-3-methyl-3-(4-nitro-phenyl)-1H-quinoline-2,4-dione] | 60.5% | 6.5% | 30.7% | 54.1% | 3.8% | 0.87 µM | 71.2% | 0% | 10.8% | 26.5%
CC1(c2ccc(Cl)cc2)C(=O)Nc2cc(Cl)cc(Cl)c2C1=O (stereo not drawn) [Example 17, 5,7-dichloro-3-(4-chloro-phenyl)-3-methyl-1H-quinoline-2,4-dione] | 26.7% | 13.8% | 16.5% | 30.2% | 21.2% | 1.43 µM | 69.8% | 0.5% | 26.9% | 7.5%
CC1(c2ccc(N)cc2)C(=O)Nc2cc(Cl)cc(Cl)c2C1=O (stereo not drawn) [Example 15, 3-(4-amino-phenyl)-5,7-dichloro-3-methyl-1H-quinoline-2,4-dione] | 52.3% | 4.8% | 5.8% | 16.9% | 15.6% | 0.254 µM | 73% | 4.5% | 11.1% | 0%
COc1cc(Br)c2c(c1)NC(=O)C(C)(c1ccccc1)C2=O (stereo not drawn) [Example 7, 5-bromo-7-methoxy-3-methyl-3-phenyl-1H-quinoline-2,4-dione] | 29.1% | 30.5% | 1.5% | 25.4% | 30.3% | 0.119 µM | 71.1% | 0.8% | 12.4% | 12.8%
CNc1ccc(C2(C)C(=O)Nc3cc(Cl)cc(Cl)c3C2=O)cc1 (stereo not drawn) [Example 39, 5,7-dichloro-3-methyl-3-(4-methylamino-phenyl)-1H-quinoline-2,4-dione] | 23% | 38.5% | 8.4% | 12.1% | 13.1% | 0.418 µM | 72% | 10.2% | 9.1% | 19.8%
C[C@H](NC(=O)Nc1cccc([C@@]2(C)C(=O)Nc3cc(Cl)cc(Cl)c3C2=O)c1)c1ccccc1 [Example 43, 1-(R)-[3-(5,7-dichloro-3-methyl-2,4-dioxo-1,2,3,4-tetrahydro-quinoline-3-yl) -phenyl]-3-(1-(S) -phenyl-ethyl) -urea] | 18% | 30.1% | 24% | 21.3% | 0% | 1.11 µM | 70.6% | 6.1% | 5% | 5.7%
